This note sets out measurements from US9278914B2, “SARMs and method of use thereof” (UNIVERSITY OF TENNESSEE RESEARCH FOUNDATION, priority 2004, dated 2016).

Data set [1] in a line: Metabolic stability measured in human liver microsomes. Format: in vitro ADME. How it is done:
Microsome reactions were performed under either Phase I or “Phase I and II” conditions, where indicated. Compound stocks (10 mM ACN) were initially initially diluted to a concentration of 60 μM (in 60% ACN/H2O) resulting in a “working stock” stock” solution of 100×. Human liver microsomes were utilized at a final concentration of 0.6 mg/ml. Duplicate wells were used for each time point (0, 6, 10, 30, and 60 minutes). Reactions were carried out at 37° C. in a shaking water bath, and the final concentration of solvent was kept constant at 0.6%. The final volume for each reaction was 600 μl, comprised of […] of 100 mM KPO4 buffer, (pH 7.4); 12.6 μl of HLM (from a 20 mg/ml stock); 6 μl of 100×“working stock” drug compound, and 126 μl of NRS “master mix” solution. At each time point, 100 μl of reaction was removed and added to a sample well containing 100 μl of ice-cold, 100% ACN (plus internal standards), to stop the reaction. The NRS “master mix” is a solution of glucose-6-phosphate dehydrogenase, NADP^+, MgCl2, and glucose-6-phosphate, prepared per manufacturer's instructions (BD Biosciences, Waltham, Mass.). Each 6.0 ml stock of NRS “master mix” solution contains 3.8 […], 1.0 ml solution “A” (Cat. #461220), and 0.2 ml solution “B” (Cat. #461200). Human liver microsomes (lot #0610279, Xenotech Corp.) represented a pool of 60 donors. donors.
Samples were centrifuged at 3,000 rpm for 10 minutes at 4° C. to remove debris and precipitate protein. Approximately 160 μl of supernatant was subsequently transferred to a new sample block for analysis. The concentration of parent drug remaining in each well (expressed as percent remaining versus Time ‘0’, at the beginning of the reaction) was measured by LC/MS, as detailed below.
All samples were analyzed on the MDS/Sciex API4000 Q Trap system with electrospray ionization (ESI) in the positive or negative SIM mode, depending on the compounds. The mobile phases were isocratic at 30% A (0.1% formic acid in water) and 70% B (0.1% formic acid in acetonitrile) with a flow rate of 0.4 mL/min. A Phenomenex Luna Phenyl-Hexyl column (60×2.0 mm ID, 6μ) was used. The injection volume was 10 μL. The total run time per sample was 1.6 to 3.0 minutes. […] The percentage of parent drug compound remaining after each time point was determined relative to the initial measured concentration at the beginning of the reaction (T0 min).
For half-life determination, data was fitted using GraphPad Prism, v 4.03 with the non-linear regression equation “one phase exponential decay” defined as: Y=Span*exp(−K*X)+Plateau (decays to Plateau with a first-order rate constant, K). […] Intrinsic Clearance (μl/min/mg protein) is defined as: CLint=0.693*(1/T1/2)*(ml incubation/mg protein)*1000; This equation can also be expressed as (K*1000)/microsome concentration.

In another data set the target is CYP1A2 (Homo sapiens (Human), UniProt P05177). Briefly: In vitro CYP inhibition assay. Format: biochemical. How it is done:
Averages (minus background) and IC50 values were calculated.

For data set [2], the system named is intact male Sprague-Dawley rats. Briefly: Anabolic and androgenic activity in intact male rats, daily oral gavage. Format: in vivo, rat. How it is done:
The test article for this study was weighed and dissolved in 10% DMSO (Fisher) diluted with PEG 300 (Acros Organics, N.J.) for preparation of the appropriate dosage concentrations. The animals were housed in groups of 2 to 3 animals per cage. Animals were randomly assigned to one of seven groups consisting of 4 to 5 animals per group. Control groups (intact and ORX) were administered vehicle daily. […] Where appropriate, animals were castrated on day one of the study. Treatment with compound of formula S-II began nine days post ORX and was administered daily via oral gavage for fourteen days.
The animals were sacrificed under anesthesia (ketamine/xyalzine, 87:13 mg/kg) and body weights were recorded. In addition, ventral prostate, seminal vesicles, and levator ani muscle were removed, individually weighed, normalized to body weight, and expressed as a percentage of intact control. Student's T-test was used to compare individual dose groups to the intact control group. Significance was defined a priori as a P-value<0.05. Ventral prostate and seminal vesicle weights were evaluated as a measure of androgenic activity, whereas levator ani muscle weight was evaluated as a measure of anabolic activity. Blood was collected from the abdominal aorta, centrifuged, and sera were frozen at −80° C. prior to determination of serum hormone levels. Serum luteinizing hormone (LH) and follicle stimulating hormone (FSH) concentrations were determined.
(§1) The test article for this study was weighed and dissolved in 10% DMSO (Fisher) diluted with PEG 300 (Acros Organics, N.J.) for preparation of the appropriate dosage concentrations. The animals were housed in groups of 2 to 3 animals per cage. Animals were randomly assigned to one of seven groups consisting of 4 to 5 animals per group. Control groups (intact and ORX) were administered vehicle daily. Compound of formula S-XXIII was administered via oral gavage at doses of 0.01, 0.03, 0.1, 0.3, 0.75, and 1 mg/day to both intact and ORX groups. Where appropriate, animals were castrated on day one of the study. Treatment with compound of formula S-XXIII began nine days post ORX and was administered daily via oral gavage for fourteen days.
as §1, with “S-XXIV” for “S-XXIII”, “study.” for “study. Treatment with compound of formula S-XXIII began nine days post ORX and was administered daily via oral gavage for fourteen days.”

Data set [3] is described as follows: Pharmacokinetics in beagle dogs. Format: in vivo. Particulars: dog, plasma.

Sequence of CYP1A2 (P05177 whole entry): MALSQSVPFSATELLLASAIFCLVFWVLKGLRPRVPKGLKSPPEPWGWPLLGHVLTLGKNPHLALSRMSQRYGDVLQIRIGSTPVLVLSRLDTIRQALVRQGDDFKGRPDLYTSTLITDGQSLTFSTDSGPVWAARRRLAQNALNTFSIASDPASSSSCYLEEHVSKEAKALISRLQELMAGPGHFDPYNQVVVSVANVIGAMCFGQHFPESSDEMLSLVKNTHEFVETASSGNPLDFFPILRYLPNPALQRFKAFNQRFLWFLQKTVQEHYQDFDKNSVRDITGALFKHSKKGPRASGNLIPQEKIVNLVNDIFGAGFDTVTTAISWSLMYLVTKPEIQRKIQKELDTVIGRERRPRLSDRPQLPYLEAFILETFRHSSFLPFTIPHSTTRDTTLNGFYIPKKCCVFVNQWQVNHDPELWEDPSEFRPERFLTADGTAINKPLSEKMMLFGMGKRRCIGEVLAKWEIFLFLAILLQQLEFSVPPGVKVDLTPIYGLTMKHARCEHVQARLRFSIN

As for `C[C@](O)(COc1ccc(Cl)c(F)c1)C(=O)Nc1ccc(C#N)c(C(F)(F)F)c1` [S-II, (S)-3-(4-chloro-3-fluorophenoxy)-N-(4-cyano-3-(trifluoromethyl)phenyl)-2-hydroxy-2-methylpropanamide], the “CLint (ul/min/mg) Phase I + II” value in data set [1] (Phase I + II) is below 1 µL/min/mg. Further, the “Half Life (minutes) Phase I + II” value in data set [1] (Phase I + II, 0.6 μM) is “Stable”. For the same molecule, in data set [1] (Phase I only, 0.6 μM), the “Half Life (minutes) Phase I only” value was “Stable”. The microsomal CLint at 0.6 μM in data set [1] (human, human liver microsomes, pH 7.4, Phase I only, read-out: CLint (ul/min/mg) Phase I only) is below 1 µL/min/mg. Besides, at CYP1A2, the IC50 is above 20 µM. The “Levator ani muscle weight” value in data set [2] (0.01 mg/day oral) was 100%±10%; in data set [2] (0.03 mg/day oral), 98%±7%; in data set [2] (0.1 mg/day oral), 110%±5%; in data set [2] (0.3 mg/day oral) it was 110%±5%; in data set [2] (0.75 mg/day oral), 125%±10%; in data set [2] (1 mg/day oral), 129%±10%. Further, the Prostate weight is 117%±20% in data set [2] (0.01 mg/day oral); 98%±15% in data set [2] (0.03 mg/day oral); 82%±20% in data set [2] (0.1 mg/day oral); 62%±5% in data set [2] (0.3 mg/day oral); 107%±30% in data set [2] (0.75 mg/day oral); 110%±14% in data set [2] (1 mg/day oral). The molecule also had a clearance in data set [3] (oral) of 0.36 ± 0.12 mL/min/kg. The molecule also showed a half-life in data set [3] (oral) of 37 ± 26.8 h. Moreover, in data set [3] (oral, read-out: Vz), the Vd is 1.27 ± 0.352 L/kg. Moreover, in data set [3] (po, peroral), the bioavailability is 72.5%.

A word on the IC50: it is the concentration that gives 50% inhibition. A lower IC50 goes with inhibition by little substance. Broadly, the half-life is the time in which the quantity being followed falls by half. The term bioavailability denotes dose-corrected exposure relative to a reference, in per cent. Read a low bioavailability as little systemic uptake.
